Measured values taken from US11213522B2, “Autoimmune-induced glutamatergic receptor dysfunction methods and treatments” (SARAH HERZOG MEMORIAL HOSPITAL EZRAT NASHIM ASSOCIATION, priority 2013, dated 2022).

Key:
[1] = tested on: patient positive for anti-NR1 NMDAR antibodies; test: Time Wall; type: in vivo, human; details: post-6 weeks D-serine
Experimental: (§1) The trial consisted of two periods, starting with a 2 week lead-in/stabilization period (−2-0) following which the patient was entered in the second period of the study which consisted of a 6 week (0-6), open-label, fixed dose therapy phase. During this phase, the patient received adjuvant treatment with DSR, whose dose was increased from 1500 mg/day (week 1) to 2000 mg/day (weeks 2 and 3) to 3000 mg/day (weeks 4 and 5) and to 4000 mg/day (week 6). The doses of the ongoing medication received by the patient remained fixed throughout the study and no changes in medication were performed.
In addition, cognitive performance was assessed pre- and post DSR treatment. For this purpose, a 1.5-hour neurocognitive assessment battery (nine computerized and two paper/pencil tests) was employed that measures accuracy and speed of performance in major cognition domains, including attention/vigilance, planning, short-term and working memory, decision making, abstraction and mental flexibility. All the tests were formatted like games and puzzles, and were administered to the patient as part of the comprehensive neuropsychiatric assessment at baseline and the end of study. […]

[2] = doses of ≤4 g/day; cited from earlier work
[3] = tested on: patient positive for anti-NR1 NMDAR antibodies; test: Corsi Block Tapping Test (CBTT), forward and backward; type: in vivo, human; details: post-6 weeks D-serine
Experimental: as §1
(§2) In addition, cognitive performance was assessed pre- and post DSR treatment. For this purpose, a 1.5-hour neurocognitive assessment battery (nine computerized and two paper/pencil tests) was employed that measures accuracy and speed of performance in major cognition domains, including attention/vigilance, planning, short-term and working memory, decision making, abstraction and mental flexibility. All the tests were formatted like games and puzzles, and were administered to the patient as part of the comprehensive neuropsychiatric assessment at baseline and the end of study. The neurocognitive battery included the 1) Test of Attentional Vigilance (TOAV, (Forbes, 1998, Journal of Clinical Psychology 54:461-476; Greenberg, 1993, Journal of Child Psychology and Psychiatry 34: 1019-30)); 2) Tower of London (TOL, (Shailice, 1982, Specific impairments of planning Philosophical Transactions of the Royal Society of London. Series B, Biological Sciences 298:199-209); 3-4) Digit Span Test (DST, forward and backward (Wechsler 1997, The Wechsler adult intelligence scale-III. San Antonio, Tex.: Psychological Corporation; Kaplan 1991, The WAIS-R as a neuropsychological instrument. San Antonio, Tex.: The Psychological Corporation; Lamar et al., 2007, Neuropsychologia 45:245-54; Lamar et al., 2008, Neuropsychologia 46:2597-601)); 5-6) Corsi Block Tapping Test (CBTT, forward and backward, (Corsi, 1972, Dissertation Abstracts International. 34:819B; Kessels et al., 2000, Applied Neuropsychology 7:252-58, Kessels et al., 2008, Assessment 15:426-34)); 7) Flanker Task (Erikson and Eriksen, 1974; Perception & Psychophysics 25: 249-63, Stins et. al., 2007, Advances in Cognitive Psychology 3:389-96); 8) Time Wall (Perez et al., 1987, Unified Tri-services cognitive performance assessment battery: review and methodology; DTIC Document ADA181697, http://www.dtic.mil/dtic/tr/fulltext/u2/a81697.pdf); and Wisconsin Card Sort Test (WCST, (Berg, 1948, J Gen Psychol39:15-22; Nelson, 1976, Cortex 12:313-24)). […]

[4] = tested on: patient positive for anti-NR1 NMDAR antibodies; test: Digit Span Test (DST), forward and backward; type: in vivo, human; details: post-6 weeks D-serine
Experimental: as §1, §2

[5] = tested on: patient positive for anti-NR1 NMDAR antibodies; test: Flanker Task; type: in vivo, human; details: post-6 weeks D-serine
Experimental: as §1
In addition, cognitive performance was assessed pre- and post DSR treatment. For this purpose, a 1.5-hour neurocognitive assessment battery (nine computerized and two paper/pencil tests) was employed that measures accuracy and speed of performance in major cognition domains, including attention/vigilance, planning, short-term and working memory, decision making, abstraction and mental flexibility. All the tests were formatted like games and puzzles, and were administered to the patient as part of the comprehensive neuropsychiatric assessment at baseline and the end of study. The neurocognitive battery included the 1) Test of Attentional Vigilance (TOAV, (Forbes, 1998, Journal of Clinical Psychology 54:461-476; Greenberg, 1993, Journal of Child Psychology and Psychiatry 34: 1019-30)); 2) Tower of London (TOL, (Shailice, 1982, Specific impairments of planning Philosophical Transactions of the Royal Society of London. Series B, Biological Sciences 298:199-209); 3-4) Digit Span Test (DST, forward and backward (Wechsler 1997, The Wechsler adult intelligence scale-III. San Antonio, Tex.: Psychological Corporation; Kaplan 1991, The WAIS-R as a neuropsychological instrument. San Antonio, Tex.: The Psychological Corporation; Lamar et al., 2007, Neuropsychologia 45:245-54; Lamar et al., 2008, Neuropsychologia 46:2597-601)); 5-6) Corsi Block Tapping Test (CBTT, forward and backward, (Corsi, 1972, Dissertation Abstracts International. 34:819B; Kessels et al., 2000, Applied Neuropsychology 7:252-58, Kessels et al., 2008, Assessment 15:426-34)); 7) Flanker Task (Erikson and Eriksen, 1974; Perception & Psychophysics 25: 249-63, Stins et. al., 2007, Advances in Cognitive Psychology 3:389-96); 8) Time Wall (Perez et al., 1987, Unified Tri-services cognitive performance assessment battery: review and methodology; DTIC Document ADA181697, http://www.dtic.mil/dtic/tr/fulltext/u2/a81697.pdf); and Wisconsin Card Sort Test (WCST, (Berg, 1948, J Gen Psychol39:15-22; Nelson, 1976, Cortex 12:313-24)). In addition to the nine computerized tests, the patient completed two paper/pencil tests: 10-11) part A and part B of the Trail-Making-Test (TMT, (Reitan, 1958, Percept. Mot Skills 8:271-76; Reitan, 1992 Trail Making Test: Manual for administration and scoring. Tucson, Ariz.: Reitan Neuropsychology Laboratory)) according to the guidelines presented by Spreen and Strauss (1998)). All neurocognitive testing was completed in a private and quiet setting to limit any distractions.

[6] = tested on: patient positive for anti-NR1 NMDAR antibodies; test: Test of Attentional Vigilance (TOAV); type: in vivo, human; details: post-6 weeks D-serine
Experimental: as §1
as §2, with “International.” for “International. 34:819B; Kessels et al., 2000, Applied Neuropsychology 7:252-58, Kessels et al., 2008, Assessment 15:426-34)); 7) Flanker Task (Erikson and Eriksen, 1974; Perception & Psychophysics 25: 249-63, Stins et. al., 2007, Advances in Cognitive Psychology 3:389-96); 8) Time Wall (Perez et al., 1987, Unified Tri-services cognitive performance assessment battery: review and methodology; DTIC Document ADA181697, http://www.dtic.mil/dtic/tr/fulltext/u2/a81697.pdf); and Wisconsin Card Sort Test (WCST, (Berg, 1948, J Gen Psychol39:15-22; Nelson, 1976, Cortex 12:313-24)).”

[7] = tested on: patient positive for anti-NR1 NMDAR antibodies; test: Tower of London (ToL); type: in vivo, human; details: post-6 weeks D-serine
Experimental: as §1, §2

[8] = pre-treatment subject unable to complete task

For N[C@H](CO)C(=O)O [D-serine], the “Time Wall accuracy score, mean ± SD” value ([1]; pre-treatment 0.056 ± 0.053) is listed as 0.077 ± 0.051, the “Time Wall correctly estimated trials, total (0-20)” value ([1]; pre-treatment 12) is listed as 6 and the Adverse events [2] is listed as “No significant adverse events”. The “CBTT Backward Span Length (2-9)” value ([3]; pre-treatment 4) was 3.5, the “CBTT Forward Span Length (2-9)” value ([3]; pre-treatment 5) was 4 and the “CBTT Backward Number Correct (0-16)” value ([3]; pre-treatment 6) was 5. For the same compound, the “CBTT Forward Number Correct (0-16)” value ([3]; pre-treatment 8) was 6, the “DST Forward Span Length (3-9)” value ([4]; pre-treatment 6) was 7 and the “DST Forward Number Correct (0-14)” value ([4]; pre-treatment 8) was 9. The “DST Backward Number Correct (0-14)” value [4, 8] was 3, the “DST Backward Span Length (3-9)” value [4, 8] was 4 and the “Flanker Task Incongruous accuracy, mean ± SD” value ([5]; pre-treatment 0.450 ± 0.499) was 0.575 ± 0.494 proportion correct. The “Flanker Task Congruous accuracy, mean ± SD” value ([5]; pre-treatment 0.475 ± 0.499) was 0.65 ± 0.476 proportion correct, the “Flanker Task Neutral accuracy, mean ± SD” value ([5]; pre-treatment 0.475 ± 0.499) was 0.65 ± 0.476 proportion correct and the “Flanker Task Congruous response time, mean ± SD” value ([5]; pre-treatment 725.03 ± 130.03) was 651.93 ± 130.16 milliseconds. The “Flanker Task Neutral response time, mean ± SD” value ([5]; pre-treatment 732.18 ± 127.96) was 688.23 ± 99.19 milliseconds, the “Flanker Task Incongruous response time, mean ± SD” value ([5]; pre-treatment 737.38 ± 131.34) was 713.3 ± 102.14 milliseconds and the “TOAV Commission errors” value ([6]; pre-treatment 1) was 0. For the same compound, the “TOAV Omission errors” value ([6]; pre-treatment 1) was 2, the “TOAV Response time, mean ± SD” value ([6]; pre-treatment 562 ± 103) was 523 ± 93 milliseconds and the “ToL correctly solved trials, total (0-12)” value ([7]; pre-treatment 6) was 4. For the same compound, the “ToL preplanning time, mean ± SD” value ([7]; pre-treatment 15.48 ± 4.43) was 11.24 ± 4.73 s, the “ToL movement execution time, mean ± SD” value ([7]; pre-treatment 22.57 ± 11.998) was 19.30 ± 15.42 s and the “ToL total time (0-720 seconds)” value ([7]; pre-treatment 456.582) was 366.415 s.
